Measurements published in publication PMC12213745, “Compounds from Cyclocarya paliurus leaves inhibit binary division of methicillin-resistant Staphylococcus aureus by disrupting FtsZ dynamic” (Frontiers in Microbiology, 2025).
In brackets after ≈: the same amount, converted by molar mass. Read-outs that look alike come from different tables or passages of the source.

Key:
E. faecalis = assay: MIC, broth microdilution (CLSI); type: cell-based; settings: Enterococcus faecalis
Excerpt: (§1) Staphylococcus aureus ATCC25923 and Escherichia coli ATCC25922 were obtained from the American Type Culture Collection (ATCC, Manassas, VA, USA). The Methicillin-resistant S. aureus (MRSA) clinical isolate MRSA-4, previously confirmed as mecA-positive and characterized for its antibiotic resistance profile ([Sun et al., 2023]), was used in this study. Staphylococcus epidermidis (GDMCC 1.143), Enterococcus faecalis (GDMCC 1.164), and Salmonella enterica subsp. enterica (GDMCC 1.1114) were obtained from the Guangdong Microbial Culture Collection Center (GDMCC, Guangzhou, China). The Pseudomonas aeruginosa PA14 strain was kindly provided by Professor Min Wu (Southwest Medical University, China). All bacterial strains were routinely cultured in Mueller-Hinton broth (MHB) or Luria-Bertani (LB) broth medium at 37°C with shaking at 200 rpm. Vancomycin was purchased from Solarbio Science & Technology Co., Ltd. (Beijing, China), and oxacillin was obtained from Taiji Group Hengsheng Pharmaceutical Co., Ltd. (Chengdu, China). The polyclonal rabbit primary anti-body to FtsZ was purchased from Abcam PLC (Cambridge, UK). Alexa488-conjugated goat anti-rabbit IgG was purchased from ZSGB-BIO Biotechnology (Beijing, China). DAPI staining solution was purchased from Beyotime Biotechnology (Shanghai, China).
(§2) The minimum inhibitory concentrations (MICs) of the test compounds (AA, MA, and UA) were determined using the standard broth microdilution method in accordance with the Clinical and Laboratory Standards Institute (CLSI) guidelines ([Humphries et al., 2021]). Bacteria were cultured in MHB or LB broth at 37°C with shaking (200 rpm) to the logarithmic phase, then diluted to a final density of 1 × 10^6 CFU/mL. Test compounds (dissolved in DMSO) and positive controls (vancomycin and oxacillin) were diluted in MHB and serially twofold diluted in 96-well plates. Each well was inoculated with 100 μL of bacterial suspension (1 × 10^6 CFU/mL), yielding a final bacterial density of 5 × 10^5 CFU/mL and a total volume of 200 μL. The final concentrations tested were 128 to 1 μg/mL for AA, MA, and UA; 16 to 0.5 μg/mL for vancomycin; and 64 to 0.0625 μg/mL for oxacillin. DMSO was used as a solvent control. Plates were incubated statically at 37°C for 18–24 h. After incubation, the OD600 was measured using a microplate reader (SpectraMax i3x, Molecular Devices, CA, USA). The MIC was defined as the lowest compound concentration that caused ≥ 90% inhibition of bacterial growth compared to the drug-free growth control. All tests were performed in three independent biological replicates.
(§3) Following the isolation and identification of AA, MA, and UA from ECPL, we evaluated their antibacterial activity and spectrum. The MICs of the compounds were determined against MRSA-4, S. aureus ATCC25923, S. epidermidis, and E. faecalis (Gram-positive), as well as P. aeruginosa PA14, E. coli ATCC25922, and S. enterica subsp. Enterica (Gram-negative) using the standard broth microdilution method in accordance with CLSI guidelines ([Humphries et al., 2021]).

S. aureus ATCC25923 [1] = assay: MIC, broth microdilution (CLSI); type: cell-based; settings: Staphylococcus aureus
Excerpt: as §1, §2, §3

P. aeruginosa PA14 = assay: MIC, broth microdilution (CLSI); type: cell-based; settings: Pseudomonas aeruginosa
Excerpt: as §1, §2, §3

S. epidermidis (1.143) = assay: MIC, broth microdilution (CLSI); type: cell-based; settings: Staphylococcus epidermidis
Excerpt: as §1, §2, §3

E. coli ATCC25922 = assay: MIC, broth microdilution (CLSI); type: cell-based; settings: Escherichia coli
Excerpt: as §1, §2, §3

MRSA-4 [2] = assay: MIC, broth microdilution (CLSI); type: cell-based, Methicillin-resistant S. aureus; settings: Staphylococcus aureus
Excerpt: as §1, §2, §3

[3] = system: S. enterica subsp. Enterica (1.1114); assay: MIC, broth microdilution (CLSI); type: cell-based, Salmonella enterica subsp. enterica; settings: Salmonella enterica
Excerpt: as §1, §2, §3

MRSA-4 [4] = assay: Time-dependent killing assay; type: cell-based, Methicillin-resistant S. aureus; settings: 2 × MIC
Procedure: An overnight culture of MRSA-4 was diluted 1:100 in fresh MHB and incubated at 37°C with shaking (200 rpm) until reaching mid-log phase (OD600 = 0.4–0.6). The culture was then adjusted to 1 × 10^6 CFU/mL and treated with AA, MA, or UA at concentrations of 1×, 2×, and 4 × MIC. 2 × MIC of vancomycin was used as a positive control, and an equivalent volume of DMSO served as the negative control. The cultures were incubated at 37°C with shaking (200 rpm) during the assay. At designated time points (0, 1, 2, 4, 8, and 24 h), samples were collected, serially diluted tenfold in sterile PBS, and 100 μL of appropriate dilutions were plated on LB agar. Plates were incubated at 37°C for 18–24 h, and viable bacteria were quantified. All experiments were performed in biological triplicates.
We next performed time-kill kinetics assays to characterize the time-dependent antibacterial effects of AA, MA, and UA against MRSA-4. Bacterial cultures were exposed to AA, MA, and UA at 1×, 2×, and 4 × their respective MICs, and viable CFU were counted at designated time points (0, 1, 2, 4, 8, and 24 h). As shown in the time-kill curves (Figure 1), treatment with 1 × or 2 × MIC of AA, MA, or UA led to an initial reduction in bacterial load within the first 2 h.

MRSA-4 [5] = assay: SEM analysis, cell long axis; type: cell-based, Methicillin-resistant S. aureus; settings: 2 × MIC, 2 h, mean ± SD, PBS control 0.53 ± 0.04
Procedure: (§4) Scanning electron microscopy (SEM) was used to observe the morphological changes in bacterial cells treated with the isolated compounds. S. aureus ATCC 25923 and MRSA-4 were grown in MHB to mid-log phase (OD600 = 0.4–0.6) as previously described. The bacteria cultures were treated with AA, MA, or UA at 2 × MIC for 2 h at 37°C with shaking at 150 rpm. Untreated cultures (PBS group) served as the growth control. After incubation, bacterial cells were harvested by centrifugation and washed three times with PBS (pH 7.2). Coverslips (8 mm diameter) were cleaned with absolute ethanol under ultrasonication, air-dried, immersed in 0.1% (w/v) chitosan solution (dissolved in 1% acetic acid) for 5 s, and air-dried again at room temperature ([Su et al., 2022]). A 25 μL aliquot of the washed bacterial suspension was added to each coverslip and allowed to adhere for 1 h at room temperature. Adhered cells were fixed with 1 mL of 2.5% (v/v) glutaraldehyde at 4°C overnight. Fixed samples were rinsed 2–3 times with PBS (5 min per rinse), then dehydrated through a graded ethanol series: 50, 70, and 90% ethanol (each once for 5 min), followed by 100% ethanol (three times for 5 min each). After dehydration, samples were air-dried overnight at room temperature. SEM imaging was performed using an EVO 10 scanning electron microscope (Zeiss, Jena, Germany). Cell long-axis statistical analysis was conducted using ImageJ software (Version 1.42q, National Institutes of Health, MD, USA).
(§5) Having established the antibacterial activity of AA, MA, and UA, we next examined their effects on bacterial morphology. We employed SEM to examine the alterations induced by these compounds in S. aureus ATCC25923 and MRSA-4. Bacterial cultures were treated with AA, MA, or UA at 2 × MIC for 2 h, while untreated (PBS group) cultures served as negative controls. […] In PBS groups, both S. aureus ATCC25923 and MRSA-4 maintained typical spherical morphology with smooth and intact surfaces.

S. aureus ATCC25923 [6] = assay: SEM analysis, cell long axis; type: cell-based, Staphylococcus aureus; settings: 2 × MIC, 2 h, mean ± SD, PBS control 0.52 ± 0.05
Procedure: as §4, §5

SMILES	MIC (E. faecalis; E. faecalis, ≥ 90% growth inhibition, 18–24 h, read-out: MIC)	MIC (S. aureus ATCC25923 [1]; S. aureus ATCC25923, ≥ 90% growth inhibition, 18–24 h, read-out: MIC)	MIC (P. aeruginosa PA14; P. aeruginosa PA14, ≥ 90% growth inhibition, 18–24 h, read-out: MIC)	MIC (S. epidermidis (1.143); S. epidermidis (1.143), ≥ 90% growth inhibition, 18–24 h, read-out: MIC)	MIC (E. coli ATCC25922; E. coli ATCC25922, ≥ 90% growth inhibition, 18–24 h, read-out: MIC)	MIC (MRSA-4 [2]; MRSA-4, ≥ 90% growth inhibition, 18–24 h, read-out: MIC)	MIC ([3]; S. enterica subsp. Enterica (1.1114), ≥ 90% growth inhibition, 18–24 h, read-out: MIC)	MIC (E. faecalis)	MIC (S. aureus ATCC25923 [1]; ATCC25923)	MIC (P. aeruginosa PA14; PA14)	MIC (S. epidermidis (1.143))	MIC (E. coli ATCC25922; ATCC25922)	MIC (MRSA-4 [2]; MRSA)	time to reduce bacterial counts below the detection limit (MRSA-4 [4])	length of long axis of cells (MRSA-4 [5])	MIC [3]	length of long axis of cells (S. aureus ATCC25923 [6])
Cc1onc(-c2ccccc2)c1C(=O)N[C@@H]1C(=O)N2[C@@H]1SC(C)(C)[C@@H]2C(=O)O [Oxa, Oxacillin, reference compound]	8 µg/mL (≈ 19.9 µM)	0.125 µg/mL (≈ 0.311 µM)	> 64 µg/mL	0.25 µg/mL (≈ 0.623 µM)	> 64 µg/mL	64 µg/mL (≈ 159 µM)	> 64 µg/mL										
CN[C@H](CC(C)C)C(=O)N[C@H]1C(=O)N[C@@H](CC(N)=O)C(=O)N[C@H]2C(=O)N[C@H]3C(=O)N[C@H](C(=O)N[C@H](C(=O)O)c4cc(O)cc(O)c4-c4cc3ccc4O)[C@H](O)c3ccc(c(Cl)c3)Oc3cc2cc(c3O[C@@H]2O[C@H](CO)[C@@H](O)[C@H](O)[C@H]2O[C@H]2C[C@](C)(N)[C@H](O)[C@H](C)O2)Oc2ccc(cc2Cl)[C@H]1O [Van, Vancomycin, reference compound]								1 µg/mL (≈ 0.69 µM)	2 µg/mL (≈ 1.38 µM)	> 16 µg/mL	2 µg/mL (≈ 1.38 µM)	> 16 µg/mL	2 µg/mL (≈ 1.38 µM)	≤ 8 h	0.57 ± 0.06 μm	> 16 µg/mL	0.61 ± 0.06 μm
